Read-outs that look alike come from different tables or passages of the source.
Assays:
ENPP-1 ECD [1] = target: T1, ENPP-1 ECD (Homo sapiens (Human), UniProt P22413); experiment: Assay 1: inhibition of ENPP1 hydrolysis of 2′,3′-cGAMP (AMP-Glo, […] enzyme)
Protocol: Assay 1: Test compounds were plated in a 3× dilution scheme in a 384 well plate. […] AMP Detection solution (100 μL) was added to each well, the plate centrifuged and incubated for 60 min.

[2] = target: ENPP1 on MDA-MB-231 cells (Homo sapiens (Human), UniProt P22413); experiment: Assay 3: inhibition of ENPP1 hydrolysis of AMP p-nitrophenyl ester on MDA-MB-231 cells
ENPP-1 ECD [3] = target: T1, ENPP-1 ECD; experiment: Assay 2: inhibition of ENPP1 hydrolysis of 2′,3′-cGAMP (AMP-Glo, […] enzyme)
Protocol: Assay 2: Compared to the conditions in Assay 1, this assay has a larger dynamic range and ensures the system is under steady-state conditions by reducing the enzyme concentration in the assay.
Test compounds were plated in a 3× dilution scheme in a 384 well plate. […] AMP Detection solution (10 μL) was added to each well, the plate centrifuged and incubated for 60 min.

[4] = Assay 1 (IC50), inhibition of ENPP1 hydrolysis of 2′,3′-cGAMP, no unit in Table 18 (Table 17 legend for this assay uses nM)
[5] = IC50 in Assay 1, […] ENPP-1 ECD, 24 μM 2,3-cGAMP, pH 8.0
[6] = read-out: Assay 1 (IC50), ENPP1 hydrolysis of 2′,3′-cGAMP, AMP-Glo
[7] = Assay 2 (KI), ENPP1 hydrolysis of 2′,3′-cGAMP, AMP-Glo, […] ENPP-1, 24 μM cGAMP
[8] = Assay 2 (KI), inhibition of ENPP1 hydrolysis of 2′,3′-cGAMP, no unit in Table 18 (Table 17 legend for this assay uses nM)
[9] = read-out: Assay 1 (IC50), inhibition of ENPP1 hydrolysis of 2′,3′-cGAMP, no unit in Table 18 (Table 17 legend for this assay uses nM)
[10] = read-out: Assay 3 (KI, app), apparent KI from IC50 via Cheng/Prusoff, pNP-AMP […], MDA-MB-231 cells, pH 7.4, 37° C., 3 h, unit inferred
[11] = read-out: Assay 2 (KI), ENPP1 hydrolysis of 2′,3′-cGAMP, AMP-Glo, […] ENPP-1, 24 μM cGAMP
[12] = read-out: Assay 2 (KI), inhibition of ENPP1 hydrolysis of 2′,3′-cGAMP, no unit in Table 18 (Table 17 legend for this assay uses nM)

T1 sequence (P22413 98-925): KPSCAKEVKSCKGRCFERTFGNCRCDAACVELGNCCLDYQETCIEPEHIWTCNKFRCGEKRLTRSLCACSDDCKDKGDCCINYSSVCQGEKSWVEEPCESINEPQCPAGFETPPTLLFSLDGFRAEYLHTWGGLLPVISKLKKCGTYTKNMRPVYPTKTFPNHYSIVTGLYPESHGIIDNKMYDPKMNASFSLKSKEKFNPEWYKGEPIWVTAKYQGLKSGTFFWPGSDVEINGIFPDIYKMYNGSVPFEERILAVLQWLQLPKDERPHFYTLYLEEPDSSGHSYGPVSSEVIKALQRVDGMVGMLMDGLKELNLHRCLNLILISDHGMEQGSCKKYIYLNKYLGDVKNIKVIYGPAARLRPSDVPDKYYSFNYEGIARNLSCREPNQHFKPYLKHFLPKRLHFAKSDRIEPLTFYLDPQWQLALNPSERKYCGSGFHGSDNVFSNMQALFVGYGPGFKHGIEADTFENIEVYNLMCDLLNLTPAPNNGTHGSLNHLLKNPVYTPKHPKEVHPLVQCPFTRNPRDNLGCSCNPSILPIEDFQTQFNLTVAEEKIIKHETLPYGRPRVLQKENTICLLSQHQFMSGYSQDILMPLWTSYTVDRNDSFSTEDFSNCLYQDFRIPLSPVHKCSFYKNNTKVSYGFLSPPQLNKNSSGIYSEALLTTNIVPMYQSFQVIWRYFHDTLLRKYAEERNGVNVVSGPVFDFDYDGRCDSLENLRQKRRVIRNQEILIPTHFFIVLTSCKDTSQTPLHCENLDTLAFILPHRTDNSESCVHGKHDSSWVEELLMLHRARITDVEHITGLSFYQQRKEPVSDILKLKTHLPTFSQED
ENPP1 on MDA-MB-231 cells, sequence (P22413 whole entry, the tested form may be a part): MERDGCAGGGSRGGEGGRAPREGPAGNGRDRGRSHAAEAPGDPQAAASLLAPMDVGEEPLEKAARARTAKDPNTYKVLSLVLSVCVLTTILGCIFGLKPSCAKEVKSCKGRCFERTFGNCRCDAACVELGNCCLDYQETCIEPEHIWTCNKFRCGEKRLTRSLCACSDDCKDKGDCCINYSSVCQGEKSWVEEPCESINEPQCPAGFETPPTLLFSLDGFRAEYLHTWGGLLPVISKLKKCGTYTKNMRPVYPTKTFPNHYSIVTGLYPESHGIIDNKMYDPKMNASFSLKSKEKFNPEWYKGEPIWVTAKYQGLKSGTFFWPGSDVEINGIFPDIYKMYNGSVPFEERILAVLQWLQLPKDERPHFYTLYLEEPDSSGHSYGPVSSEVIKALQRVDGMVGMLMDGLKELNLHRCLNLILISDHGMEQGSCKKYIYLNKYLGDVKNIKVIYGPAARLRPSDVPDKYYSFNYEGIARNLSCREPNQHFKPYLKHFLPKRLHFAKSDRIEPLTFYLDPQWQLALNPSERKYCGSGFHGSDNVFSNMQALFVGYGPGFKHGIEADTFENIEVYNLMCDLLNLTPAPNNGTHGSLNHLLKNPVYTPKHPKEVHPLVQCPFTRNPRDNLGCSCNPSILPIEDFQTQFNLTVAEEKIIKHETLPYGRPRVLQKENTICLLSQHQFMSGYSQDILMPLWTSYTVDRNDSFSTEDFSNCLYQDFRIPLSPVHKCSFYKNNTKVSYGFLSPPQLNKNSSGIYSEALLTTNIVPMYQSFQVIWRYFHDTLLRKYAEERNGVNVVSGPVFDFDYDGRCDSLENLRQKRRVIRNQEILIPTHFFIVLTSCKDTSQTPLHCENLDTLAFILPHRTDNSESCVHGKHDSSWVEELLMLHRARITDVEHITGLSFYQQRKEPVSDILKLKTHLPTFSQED

| SMILES | Ki [2] | Ki (ENPP-1 ECD [3]; [8]) | Ki [2, 10] | Ki (ENPP-1 ECD [3]; [12]) | other results |
| --- | --- | --- | --- | --- | --- |
| COc1cc2ncnc(N3CCC(CCS(C)(=N)=O)CC3)c2cc1OC (stereo not shown) [Compound 8, (2-(1-(6,7-dimethoxyquinazolin-4-yl)piperidin-4-yl)ethyl)(imino)(methyl)-λ^6-sulfanone] | 27 nM | 0.69 nM |  |  | IC50 (ENPP-1 ECD [1]; [4]): 4.1 nM; IC50 (ENPP-1 ECD [1]; [5]): 6.9 nM; IC50 (ENPP-1 ECD [1]; [6]): < 10 nM; Ki (ENPP-1 ECD [3]; [7]): < 3 nM |
| COc1ccc2c(OCc3cccc(S(C)(=N)=O)c3)ccnc2c1 (stereo not shown) [Compound 133, imino(3-{[(7-methoxyquinolin-4-yl)oxy]methyl}phenyl)methyl-λ^6-sulfanone] | 13 nM | 0.12 nM |  |  | IC50 (ENPP-1 ECD [1]; [4]): 1.4 nM; Ki (ENPP-1 ECD [3]; [7]): < 3 nM |
| COc1cc2nccc(Oc3ccc([S@@](=N)(=O)C4CC4)cc3)c2cc1F [Compound 120a] |  |  | 6.5 nM | 0.05 nM | IC50 (ENPP-1 ECD [1]; [6]): < 10 nM; IC50 (ENPP-1 ECD [1]; [9]): 0.46 nM; Ki (ENPP-1 ECD [3]; [11]): < 3 nM |
| COc1cc2nccc(Oc3ccc(S(=N)(=O)C4CC4)cc3)c2cc1F (stereo not shown) [Compound 120, [cyclopropyl({4-[(6-fluoro-7-methoxyquinolin-4-yl)oxy]phenyl})imino-λ^6-sulfanyl]one] | 6.2 nM | 0.12 nM |  |  | IC50 (ENPP-1 ECD [1]; [4]): 1.1 nM; IC50 (ENPP-1 ECD [1]; [6]): < 10 nM; Ki (ENPP-1 ECD [3]; [7]): < 3 nM |
| COc1ccc2c(N3CCC4(CC3)CCN([S@](C)(=N)=O)C4)ccnc2c1 [Compound 55a] |  |  | 8.7 nM | 0.09 nM | IC50 (ENPP-1 ECD [1]; [6]): < 10 nM; IC50 (ENPP-1 ECD [1]; [9]): 0.76 nM; Ki (ENPP-1 ECD [3]; [11]): < 3 nM |
| COc1cc2nncc(N3CCC(CCS(C)(=N)=O)CC3)c2cc1OC (stereo not shown) [Compound 151, {2-[1-(6,7-dimethoxycinnolin-4-yl)piperidin-4-yl]ethyl}(imino)methyl-λ^6-sulfanone] | 59 nM | 0.57 nM |  |  | IC50 (ENPP-1 ECD [1]; [4]): 6.2 nM; Ki (ENPP-1 ECD [3]; [7]): < 3 nM |
| COc1ccc2c(OCc3cccc([S@@](C)(=N)=O)c3)ccnc2c1 [Compound 133a] |  |  | 4.1 nM | 0.055 nM | IC50 (ENPP-1 ECD [1]; [6]): < 10 nM; IC50 (ENPP-1 ECD [1]; [9]): 0.5 nM; Ki (ENPP-1 ECD [3]; [11]): < 3 nM |
| COc1cc2ncnc(N3CCC(CNS(C)(=N)=O)CC3)c2cc1OC (stereo not shown) [Compound 94, N-((1-(6,7-dimethoxyquinazolin-4-yl)piperidin-4-yl)methyl)methanesulfonimidamide] | 83 nM | 1.3 nM |  |  | IC50 (ENPP-1 ECD [1]; [4]): 6.6 nM; IC50 (ENPP-1 ECD [1]; [6]): < 10 nM; Ki (ENPP-1 ECD [3]; [7]): < 3 nM |
| COc1ccc2c(Oc3ccc([S@@](=N)(=O)C4CC4)cc3)ccnc2c1 [Compound 60a] |  |  | 11 nM | 0.099 nM | IC50 (ENPP-1 ECD [1]; [6]): < 10 nM; IC50 (ENPP-1 ECD [1]; [9]): 1.3 nM; Ki (ENPP-1 ECD [3]; [11]): < 3 nM |
| COc1cccc2c(N3CCC(CCS(C)(=N)=O)CC3)ncnc12 (stereo not shown) [Compound 72, imino({2-[1-(8-methoxyquinazolin-4-yl)piperidin-4-yl]ethyl})methyl-λ^6-sulfanone] | 430 nM | 18 nM |  |  | IC50 (ENPP-1 ECD [1]; Assay 1 (IC50), ENPP1 hydrolysis of 2′,3′-cGAMP, AMP-Glo): 10 to 1000 nM; IC50 (ENPP-1 ECD [1]; [4]): 120 nM; Ki (ENPP-1 ECD [3]; [7]): 3 to 300 nM |
| COc1cc2ncnc(N3CCC4(CC3)CCN(S(C)(=N)=O)C4)c2cc1OC (stereo not shown) [Compound 54, [8-(6,7-dimethoxyquinazolin-4-yl)-2,8-diazaspiro[4.5]decan-2-yl](imino)methyl-λ^6-sulfanone] | 0.88 nM | 0.014 nM |  |  | IC50 (ENPP-1 ECD [1]; [4]): 0.71 nM; Ki (ENPP-1 ECD [3]; [7]): < 3 nM |
| COc1cc2ncnc(-c3ccc4c(c3)CN(S(N)(=O)=O)CC4)c2cc1OC [reference compound] | 23 nM |  |  |  | IC50 (ENPP-1 ECD [1]; [5]): 11 nM |
| COc1cc2ncc(C#N)c(N3CCC4(CC3)CCN(S(C)(=N)=O)C4)c2cc1F (stereo not shown) [Compound 210, 6-fluoro-4-{2-[imino(methyl)oxo-λ^6-sulfanyl]-2,8-diazaspiro[4.5]decan-8-yl}-7-methoxyquinoline-3-carbonitrile] | 2.5 nM | 0.024 nM |  |  |  |
| COc1cc2nccc(N3CCC4(CC3)CCN(S(C)(=N)=O)C4)c2cc1Cl (stereo not shown) [Compound 156, [8-(6-chloro-7-methoxyquinolin-4-yl)-2,8-diazaspiro[4.5]decan-2-yl](imino)methyl-λ^6-sulfanone] | 4.1 nM | 0.03 nM |  |  | Ki (ENPP-1 ECD [3]; [7]): < 3 nM |
| COc1ccc2c(Oc3ccc(S(C)(=N)=O)cc3)c(C#N)cnc2c1 (stereo not shown) [Compound 121, 4-{4-[imino(methyl)oxo-λ^6-sulfanyl]phenoxy}-7-methoxyquinoline-3-carbonitrile] | 250 nM | 4.2 nM |  |  | Ki (ENPP-1 ECD [3]; [7]): 3 to 300 nM |
| COc1cccc2c(N3CC[C@@H](CS(C)(=N)=O)C3)ncnc12 (stereo partly drawn) [Compound 239, imino({[(3R)-1-(8-methoxyquinazolin-4-yl)pyrrolidin-3-yl]methyl})methyl-λ^6-sulfanone] | 15 nM | 0.81 nM |  |  |  |
| COc1cc2nccc(N3CCC(CC[S@@](C)(=N)=O)CC3)c2cc1Cl [Compound 141a] |  |  | 28 nM | 0.26 nM | Ki (ENPP-1 ECD [3]; [11]): < 3 nM |
| COc1cc2nccc(N3CCC4(CC3)CCN(S(=N)(=O)C3CC3)C4)c2cc1F (stereo not shown) [Compound 218, {cyclopropyl[8-(6-fluoro-7-methoxyquinolin-4-yl)-2,8-diazaspiro[4.5]decan-2-yl]imino-λ^6-sulfanyl}one] | 0.69 nM | 0.022 nM |  |  |  |

| SMILES | Ki [2] | Ki (ENPP-1 ECD [3]; [8]) | Ki [2, 10] | Ki (ENPP-1 ECD [3]; [12]) | other results |
| --- | --- | --- | --- | --- | --- |
| COc1cc2nncc(N3CCC4(CC3)CCN(S(C)(=N)=O)C4)c2cc1OC (stereo not shown) [Compound 211, [8-(6,7-dimethoxycinnolin-4-yl)-2,8-diazaspiro[4.5]decan-2-yl](imino)methyl-λ^6-sulfanone] | 0.97 nM | 0.022 nM |  |  |  |
| COc1cc2ncc(F)c(N3CCC4(CC3)CCN(S(C)(=N)=O)C4)c2cc1OC (stereo not shown) [Compound 227, [8-(3-fluoro-6,7-dimethoxyquinolin-4-yl)-2,8-diazaspiro[4.5]decan-2-yl](imino)methyl-λ^6-sulfanone] | 0.51 nM | 0.018 nM |  |  |  |
| COc1cc2ncnc(N3CCC4(CC3)CCN(S(C)(=N)=O)C4)c2cc1Cl (stereo not shown) [Compound 212, [8-(6-chloro-7-methoxyquinazolin-4-yl)-2,8-diazaspiro[4.5]decan-2-yl](imino)methyl-λ^6-sulfanone] | 4.4 nM | 0.047 nM |  |  |  |
| COc1cccc2c(N3CCC4(C3)CN([S@@](C)(=N)=O)C4)ncnc12 [Compound 223b] |  |  | 460 nM | 19 nM |  |
| COc1cccc2c(N3CCC(CS(=N)(=O)C4CC4)CC3)c(C#N)cnc12 (stereo not shown) [Compound 189, 4-(4-{[cyclopropyl(imino)oxo-λ^6-sulfanyl]methyl}piperidin-1-yl)-8-methoxyquinoline-3-carbonitrile] | 0.45 nM | 0.033 nM |  |  |  |
| COc1cc2nccc(OC[C@H]3CCN([S@@](C)(=N)=O)C3)c2cc1F [Compound 230b] |  |  | 6.6 nM | 0.38 nM |  |
| COc1cc2ncnc(-c3ccc4c(c3)CN([S@](C)(=N)=O)CC4)c2cc1OC [Compound 37b] |  |  | 21 nM | 0.28 nM | Ki (ENPP-1 ECD [3]; [11]): < 3 nM |
| COc1cccc2c(N3CCC(CS(=N)(=O)C4CC4)CC3)ncnc12 (stereo not shown) [Compound 190, cyclopropyl(imino){[1-(8-methoxyquinazolin-4-yl)piperidin-4-yl]methyl}-λ^6-sulfanone] | 7.3 nM | 0.19 nM |  |  |  |
| COc1cc2ncnc(N3CCC4(CC3)CCN([S@](=N)(=O)C3CC3)C4)c2cc1OC [Compound 160a] |  |  | 0.22 nM | 0.007 nM |  |
| COc1ccc2c(OCc3cc(S(C)(=N)=O)co3)ccnc2c1 (stereo not shown) [Compound 170, imino(5-{[(7-methoxyquinolin-4-yl)oxy]methyl}furan-3-yl)methyl-λ^6-sulfanone] | 25 nM | 0.7 nM |  |  |  |
| COc1cc2nccc(OCc3cccc(S(C)(=N)=O)c3)c2cc1F (stereo not shown) [Compound 169, (3-{[(6-fluoro-7-methoxyquinolin-4-yl)oxy]methyl}phenyl)(imino)methyl-λ^6-sulfanone] | 1.5 nM | 0.051 nM |  |  |  |
| COc1cc2ncnc(N3CC4(CC(C[S@](C)(=N)=O)C4)C3)c2cc1OC [Compound 237b] |  |  | 0.17 nM | 0.005 nM |  |
| COc1cc2nccc(OCc3cccc([S@@](C)(=N)=O)c3)c2cc1F [Compound 169a] |  |  | > 190 nM | 15 nM |  |
| COc1cccc2c(N3CCC(O)(C[S@@](C)(=N)=O)CC3)c(C#N)cnc12 [Compound 198a] |  |  | 0.086 nM | 0.0025 nM |  |
| COc1cc2ncc(C#N)c(N3CCC(CCS(C)(=N)=O)CC3)c2cc1OC (stereo not shown) [Compound 144, 4-(4-{2-[imino(methyl)oxo-λ6-sulfanyl]ethyl}piperidin-1-yl)-6,7-dimethoxyquinoline-3-carbonitrile] | 19 nM | 0.28 nM |  |  | Ki (ENPP-1 ECD [3]; [7]): < 3 nM |
| COc1cc2nccc(OCc3cccc(S(C)(=N)=O)c3)c2cc1OC (stereo not shown) [Compound 175, (3-{[(6,7-dimethoxyquinolin-4-yl)oxy]methyl}phenyl)(imino)methyl-λ^6-sulfanone] | 3.5 nM | 0.037 nM |  |  |  |
| COc1cc2ncnc(OCc3cccc(S(C)(=N)=O)c3)c2cc1OC (stereo not shown) [Compound 173, (3-{[(6,7-dimethoxyquinazolin-4-yl)oxy]methyl}phenyl)(imino)methyl-λ^6-sulfanone] | 9.2 nM | 0.17 nM |  |  |  |
